The results in this text go back to EP0195097A1, “Arachidonic acid analogues, processes for their preparation and their use in medicine” (BEECHAM GROUP PLC, priority 1985, dated 1986).

One assay deals with T1, 5-Lipoxygenase enzyme (Rattus norvegicus, UniProt P12527).
T1 construct: 5-Lipoxygenase enzyme was prepared as a 10,000g supernatant from RBL-1 cells; endogenous in cells; host or cells: RBL-1 cells (10,000g supernatant)
T1 sequence (P12527 1-673): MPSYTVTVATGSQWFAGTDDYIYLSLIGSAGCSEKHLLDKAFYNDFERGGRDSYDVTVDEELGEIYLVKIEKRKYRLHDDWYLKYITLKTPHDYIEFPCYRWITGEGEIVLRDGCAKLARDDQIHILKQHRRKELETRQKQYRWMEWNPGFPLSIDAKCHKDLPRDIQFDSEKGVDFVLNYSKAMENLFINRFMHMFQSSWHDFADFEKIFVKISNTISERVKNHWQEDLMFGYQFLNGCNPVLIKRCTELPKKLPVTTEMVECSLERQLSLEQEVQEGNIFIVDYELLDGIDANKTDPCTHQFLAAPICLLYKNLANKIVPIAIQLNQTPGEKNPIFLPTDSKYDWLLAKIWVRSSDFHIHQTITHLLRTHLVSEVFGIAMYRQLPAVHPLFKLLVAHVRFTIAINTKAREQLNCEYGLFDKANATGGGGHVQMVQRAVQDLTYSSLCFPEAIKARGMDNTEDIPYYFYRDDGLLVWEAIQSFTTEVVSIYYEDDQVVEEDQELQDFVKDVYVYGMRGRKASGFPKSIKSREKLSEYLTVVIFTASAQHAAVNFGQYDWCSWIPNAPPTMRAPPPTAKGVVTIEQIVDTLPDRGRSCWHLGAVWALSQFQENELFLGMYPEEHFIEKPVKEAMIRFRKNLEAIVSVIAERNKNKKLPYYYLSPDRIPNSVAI
The assay is described as follows: RBL-1 5-lipoxygenase screen. It is filed as biochemical. The conditions noted are these: 10,000g supernatant from RBL-1 cells; for inhibition at 50 µM: 50µM compound (cells marked *, footnote: inhibition at 50µM); for inhibition at 20 µM: 20µM compound, decrease in formation of 5-HETE and 5,12-diHETE relative to control. As for the experimental part:
1) RBL-1 5-LIPOXYGENASE SCREEN
5-Lipoxygenase enzyme was prepared as a 10,000g supernatant from RBL-1 cells by the method of Jakschik (Jakschik, B.A., F.F. Sun, L.M.Lee, and M.M. Steinhoff, 1980, Biochem. Biophys. Res.Comm. 95, 103). The 10,000g supernatant was diluted with homogenization buffer to the equivalent of 1.5 - 2.5 x 10^7 cells. ml.-l and made 2mM with respect to CaCl2. Aliquots of 0.5ml were then dispensed into tubes, and incubated at 29 °C with 5pl ethanol or compound in ethanol at the desired concentration for 2min. Then [1-^14C] arachidonic acid was added in buffer to give a final concentration of 6.3µM and 0.2pCi per incubation, and the reaction continued at 29 °C for 2min. The reaction was terminated by adding lml of acetone and cooling on ice, 0.5ml of ice-cold saline and 100pl of 2M formic acid were added, and the mixture was extracted with 2 x 2ml of chloroform. The extract was stored under N2 at -20 °C until analysis by chromatography. Activity was measured as the percentage of total radioactivity found in 5-HETE and 5,12-diHETE, and inhibition calculated as the decrease in formation of the sum of these two species in compound-treated incubates relative to control incubations.

The target of the next assay is T2, cyclo-oxygenase (Bos taurus, UniProt O62664).
T2 construct: comprising 0.96mg lyophilised bovine seminal vesicle microsomes; from tissue; host or cells: bovine seminal vesicle microsomes (lyophilised)
T2 sequence (O62664 25-600): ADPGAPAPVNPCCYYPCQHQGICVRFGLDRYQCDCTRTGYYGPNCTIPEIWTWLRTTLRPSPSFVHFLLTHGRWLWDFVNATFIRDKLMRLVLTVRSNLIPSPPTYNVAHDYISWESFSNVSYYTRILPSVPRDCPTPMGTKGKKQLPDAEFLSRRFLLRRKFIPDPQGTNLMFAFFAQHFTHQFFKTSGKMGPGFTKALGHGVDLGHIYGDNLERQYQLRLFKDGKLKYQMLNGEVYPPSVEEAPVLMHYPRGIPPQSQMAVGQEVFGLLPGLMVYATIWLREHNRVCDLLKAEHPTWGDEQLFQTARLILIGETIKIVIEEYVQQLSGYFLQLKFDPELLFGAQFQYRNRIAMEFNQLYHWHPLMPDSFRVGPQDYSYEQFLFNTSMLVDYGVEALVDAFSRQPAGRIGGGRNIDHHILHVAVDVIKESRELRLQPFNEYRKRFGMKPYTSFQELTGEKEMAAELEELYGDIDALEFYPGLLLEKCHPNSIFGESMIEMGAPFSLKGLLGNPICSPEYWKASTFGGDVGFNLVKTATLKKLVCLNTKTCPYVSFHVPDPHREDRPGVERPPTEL
The assay is described as follows: Cyclo-oxygenase screen. Format: biochemical. The conditions noted are these: 50µM compound; bovine seminal vesicle microsomes; decrease in prostaglandin formation. As for the experimental part: 2) Cyclo-oxygenase Screen
Compounds were preincubated with the incubation constitutents for 5 min at 37 °C before the reaction was started by the addition of the arachidonic acid. The reaction was continued at 37 °C for 2 min, then stopped by placing the incubations on ice and the addition of 1.2ml 0.2M citric acid. Unmetabolised substrate and prostaglandin products were extracted in ethyl acetate (2 x 4ml), the combined extracts washed with 0.8ml water, and separated by thin-layer chromatography (Kieselgel GF254 plates in ethyl acetate:acetone:glacial acetic acid, 90:10:1, v/v). Recovery was 65-80%. The regions on the thin-layer chromatography plate that chromatographed with authentic arachidonic acid or prostaglandins E2 and F2a (Rf's 0.70, 0.28 and 0.16 respectively) were scraped and the radioactivity in each determined by liquid scintillation counting with a correction for quenching being made by the external standard-channels ratio method. Inhibition of cyclo-oxygenase activity was calculated from the decrease in prostaglandin formation. Each compound concentration was tested in triplicate and the 50% inhibitory concentration, if determined, was calculated by linear regression from the inhibitory data at, at least three different compound concentrations.

Regarding `CCCCCCC#Cc1cccc(OCCCC(C(=O)O)C(=O)O)c1` [Example 58], the inhibition at 50 µM on 5-Lipoxygenase enzyme came to 45%; at cyclo-oxygenase it was 38%. On to `CCCCCCCCCCC/C=C\c1cccc(C=C(C(=O)O)C(=O)O)c1` [Example 63], for which 20 µM produced 82% inhibition at 5-Lipoxygenase enzyme. Regarding `CCCCCCC#Cc1ccccc1OCCCC(C(=O)O)C(=O)OCC` (centres unmarked) [Example 55], on 5-Lipoxygenase enzyme, the inhibition at 20 µM was 63%. `CCCCCC/C=C\c1cccc(OCCCC(C(=O)O)C(=O)O)c1` [Example 69]: at 5-Lipoxygenase enzyme, the inhibition at 20 µM was 44%. At cyclo-oxygenase, `CCCCCCCCCCCC#Cc1ccc(C=C(C(=O)O)C(=O)O)cc1` [Example 27] returned an inhibition at 50 µM of 59%. The compound `CCCCCCC#Cc1ccccc1OCCCC(C(=O)O)C(=O)O` [Example 57] registered an inhibition at 20 µM against 5-Lipoxygenase enzyme of 54%. On 5-Lipoxygenase enzyme, `CCCCCCCCCCCC#Cc1cccc(CC(C(=O)O)C(=O)O)c1` [Example 52] had an inhibition at 20 µM of 51%. On to `CCCCCCC#Cc1cccc(OCCCC(C(=O)O)C(=O)OCC)c1` (centres unmarked) [Example 56], for which the inhibition at 50 µM on 5-Lipoxygenase enzyme was 52%. Regarding `CCCCCCCCCCCC#Cc1ccccc1CC(C(=O)O)C(=O)O` [Example 28], on 5-Lipoxygenase enzyme, the inhibition at 20 µM amounted to 63%. This compound also gave an inhibition at 50 µM against cyclo-oxygenase of 76%. At 5-Lipoxygenase enzyme, `CCCCCCCCCCCC#Cc1cccc(C=C(C(=O)O)C(=O)O)c1` [Example 51] returned an inhibition at 20 µM of 25%. For the compound `CCCCCCC#Cc1ccc(C=C(C(=O)O)C(=O)OC)cc1` [Example 49], the inhibition at 20 µM against 5-Lipoxygenase enzyme worked out at 15%. Turning to `CCCCCCCCCCCC#Cc1ccccc1C=C(C(=O)O)C(=O)O` [Example 25], the inhibition at 50 µM against 5-Lipoxygenase enzyme is 55%; against cyclo-oxygenase, 59%. On to `CCCCCC/C=C\c1cccc(OCCCC(C(=O)O)C(=O)OCC)c1` (centres unmarked) [Example 68], for which testing at 20 µM on 5-Lipoxygenase enzyme gave an inhibition of 62.5%. On cyclo-oxygenase, this compound returned an inhibition at 50 µM of 40%. `CCCCCC/C=C\c1ccc(C=C(C(=O)O)C(=O)O)cc1` [Example 64] displayed an inhibition at 20 µM against 5-Lipoxygenase enzyme of 49%. As for `CCCCCCCCCCCC#Cc1ccccc1C=C(C(=O)O)C(=O)OCC` [Example 24], the inhibition at 50 µM against 5-Lipoxygenase enzyme is 60%; against cyclo-oxygenase, 70%. The compound `CCCCCCCCCCC/C=C\c1cccc(CC(C(=O)O)C(=O)O)c1` [Example 66] showed an inhibition at 20 µM against 5-Lipoxygenase enzyme of 84%.

The compound `CCCCCCC#Cc1ccc(C=C(C(=O)O)C(=O)O)cc1` [Example 50] returned an inhibition at 20 µM on 5-Lipoxygenase enzyme of 16%. In turn, `CCCCCCCCCCC/C=C\c1ccccc1C=C(C(=O)O)C(=O)O` [Example 29] registered an inhibition at 20 µM on 5-Lipoxygenase enzyme of 67%.

In general, inhibition refers to the relative decrease from the control value, in per cent.
